For one data set, the system named is SNU16 cells. Nature of the data set: SNU16 cell proliferation (CCK-8, 72 h). It is filed as cell-based. The note with it: Homo sapiens, SNU-16, read-out: SNU16 (IC50 class). As for the experimental part: The inhibitory effect of the compound on SNU16 cells proliferation was examined by CCK-8 Cell Counting Kit (Dojindo). The specific steps are as follows: SNU16 cells in logarithmic growth phase were inoculated into a 96-well culture plate at a suitable density, 90 μL per well, and cultured overnight, different concentrations of compounds were added for 72 hr, and the solvent control group was set (negative control). After the cells were treated by the compound for 72 h, the effect of the compound on cell proliferation was detected by CCK-8 cell counting kit (Dojindo). 10 μL of CCK-8 reagent was added to each well and placed in a 37° C. incubator for 2-4 hours. The full-wavelength microplate reader SpectraMax 190 was used at a measure wavelength of 450 nm.

Data set [1] deals with FGFR1 kinase domain recombinant protein (Homo sapiens, UniProt P11362). The data set can be described thus: FGFR1 enzyme activity at molecular level (ELISA, Poly(Glu,Tyr) 4:1 substrate). In general terms: ELISA stands for enzyme-linked immunosorbent assay.
Protocol: (§1) The plate was placed at 37° C. for 12-16 hours. The liquid in the well was discarded, the plate was washed, and the panel was washed three times with 200 μL/well of T-PBS (PBS containing 0.1% Tween-20) for 5 minutes each time.
(§2) 50 μL of ATP solution diluted with reaction buffer (50 mM HEPES pH 7.4, 50 mM MgCl2, 0.5 mM MnCl2, 0.2 mM Na3VO4, 1 mM DTT) was added to each well to a final concentration of 5 μM. The compound was diluted to a suitable concentration in DMSO, 1 μL/well or containing the corresponding concentration of DMSO (negative control well), and the FGFR1, FGFR4 kinase domain recombinant protein diluted in 49 μL of reaction buffer was added to initiate the reaction. Two control wells without ATP were required for each experiment. The reaction was carried out for 1 hour at 37° C. on a shaker (100 rpm). The plate was washed three times with T-PBS. Primary antibody, PY99 dilution was added at 100 μL/well and shaken at 37° C. for 0.5 hour. The plate was washed three times with T-PBS. Secondary antibody, horseradish peroxidase-labeled goat anti-mouse IgG dilution was added at 100 μL/well, and shaken at 37° C. for 0.5 hour. […] (Ultrasound was required for the dissolution of OPD, and the chromogenic solution needed to be prepared when used). 2 M H2SO4 was added at 50 μL/well to quench the reaction and a tunable wavelength microplate reader SPECTRA MAX 190 was used at a wavelength of 490 nm.
(§3) The inhibition rate of the sample was obtained by the following formula:
(§4) The IC50 value was obtained by four-parameter regression using the software attached to the microplate reader.
For data set [2], the target named is FGFR4 kinase domain recombinant protein (Homo sapiens, UniProt P22455). Nature of the data set: FGFR4 enzyme activity at molecular level (ELISA, Poly(Glu,Tyr) 4:1 substrate).
Protocol: as §1, §2, §3, §4
Another data set has as its target EGFR (Homo sapiens, UniProt P00533). The data set can be described thus: Inhibitory activity on EGFR enzyme activity. Format: biochemical.
Data set [3] deals with human lung cancer NCI-H1581 transplanted tumor. The data set can be described thus: Growth of transplanted tumor of human lung cancer NCI-H1581 in nude mice. Format: in vivo, nude mouse. The note with it: for T/C (%) relative tumor proliferation rate: d14; for body weight change of the animals / tumor volume change of the animals: po, 14 days. As for the experimental part:
The tumor tissue in the vigorous growth period was cut into about 1.5 mm^3, and inoculated subcutaneously in the right axilla of nude mouse under aseptic conditions. The diameter of transplanted subcutaneously tumor in the nude mouse was measured with a vernier caliper. The mice were randomly divided into groups after the tumor was grown to an average volume of about 90 mm 3. The compound No. 12 obtained in Example 12 was orally administered once a day at a dose of 100 mg/kg and 20 mg/kg, respectively, for 14 days, and the growth inhibition effects of compound NO. 12 on subcutaneously transplanted tumor in human lung cancer NCI-H1581 nude mouse were measured.
In the solvent control group, an equal amount of physiological saline was given. During the entire experiment, the diameter of the transplanted tumor was measured twice a week, and the body weight of the mice was weighed. The tumor volume (TV) is calculated as: TV=½×a×b^2, where a and b represent length and width, respectively. According to the measured results, the relative tumor volume (RTV) was calculated as: RTV=Vt/V0, wherein V0 was the tumor volume measured when the mouse was administered in cage (i.e. d0), Vt was the tumor volume at each measurement.
On the day of the end of the experiment, 2 hours after administration, blood samples and tumor tissues of each group were collected and preserved.

Chain of FGFR4 kinase domain recombinant protein (P22455 467-755 limits assumed): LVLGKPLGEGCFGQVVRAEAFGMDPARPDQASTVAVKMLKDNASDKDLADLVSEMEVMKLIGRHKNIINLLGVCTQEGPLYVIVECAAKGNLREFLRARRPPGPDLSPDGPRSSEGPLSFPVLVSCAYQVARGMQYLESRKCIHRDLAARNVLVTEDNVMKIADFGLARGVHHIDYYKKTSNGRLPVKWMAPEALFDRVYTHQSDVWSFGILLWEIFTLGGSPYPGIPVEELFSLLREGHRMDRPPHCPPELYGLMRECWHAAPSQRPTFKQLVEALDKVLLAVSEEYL
Chain of FGFR1 kinase domain recombinant protein (P11362 478-767 limits assumed): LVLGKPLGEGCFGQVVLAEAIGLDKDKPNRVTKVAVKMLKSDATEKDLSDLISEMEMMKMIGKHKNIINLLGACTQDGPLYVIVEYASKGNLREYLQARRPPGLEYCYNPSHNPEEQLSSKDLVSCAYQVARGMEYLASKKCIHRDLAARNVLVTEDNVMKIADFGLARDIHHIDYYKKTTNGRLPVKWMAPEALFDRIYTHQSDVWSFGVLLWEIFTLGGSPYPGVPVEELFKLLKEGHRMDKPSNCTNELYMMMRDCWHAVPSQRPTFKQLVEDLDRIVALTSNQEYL
Chain of EGFR (P00533 25-1210, species assumed): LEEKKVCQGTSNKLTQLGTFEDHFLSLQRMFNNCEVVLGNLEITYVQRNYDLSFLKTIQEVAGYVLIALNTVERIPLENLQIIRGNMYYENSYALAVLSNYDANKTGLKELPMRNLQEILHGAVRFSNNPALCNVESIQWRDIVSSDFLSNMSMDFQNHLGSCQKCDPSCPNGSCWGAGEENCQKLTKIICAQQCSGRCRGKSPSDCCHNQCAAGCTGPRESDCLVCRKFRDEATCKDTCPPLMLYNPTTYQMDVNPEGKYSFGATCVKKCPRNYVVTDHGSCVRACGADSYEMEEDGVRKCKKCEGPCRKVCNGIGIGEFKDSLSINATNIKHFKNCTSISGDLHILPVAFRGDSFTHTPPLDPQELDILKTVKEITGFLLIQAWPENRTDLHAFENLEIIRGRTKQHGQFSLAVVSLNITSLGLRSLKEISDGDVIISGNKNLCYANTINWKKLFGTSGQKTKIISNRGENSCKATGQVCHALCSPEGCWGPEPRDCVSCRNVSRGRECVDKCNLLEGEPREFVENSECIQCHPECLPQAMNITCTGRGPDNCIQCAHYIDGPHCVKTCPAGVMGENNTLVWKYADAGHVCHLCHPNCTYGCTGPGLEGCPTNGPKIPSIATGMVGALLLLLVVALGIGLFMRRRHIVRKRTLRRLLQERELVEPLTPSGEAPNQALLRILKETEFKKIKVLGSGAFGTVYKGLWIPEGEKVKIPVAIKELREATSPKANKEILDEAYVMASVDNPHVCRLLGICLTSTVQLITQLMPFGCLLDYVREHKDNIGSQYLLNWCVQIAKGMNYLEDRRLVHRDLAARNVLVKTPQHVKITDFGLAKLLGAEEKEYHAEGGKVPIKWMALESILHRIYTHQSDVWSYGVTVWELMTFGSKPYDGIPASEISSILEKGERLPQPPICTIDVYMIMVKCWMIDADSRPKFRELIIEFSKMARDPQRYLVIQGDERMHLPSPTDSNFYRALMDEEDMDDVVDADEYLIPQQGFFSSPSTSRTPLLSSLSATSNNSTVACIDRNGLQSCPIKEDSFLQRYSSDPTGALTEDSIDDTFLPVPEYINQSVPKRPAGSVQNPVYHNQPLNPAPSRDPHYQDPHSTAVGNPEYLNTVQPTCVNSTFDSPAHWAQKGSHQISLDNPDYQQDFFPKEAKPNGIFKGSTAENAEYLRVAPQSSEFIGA

`C=C(CN1CCOCC1)C(=O)N1CC(n2cc(-c3cc4cc(C)cc(OC)c4s3)c3c(N)ncnc32)C1` [NO. 31, 1-(3-(4-amino-5-(7-methoxy-5-methylbenzothiophene-2-yl)-7H-pyrrole[2,3-d]pyrimidine-7-yl)azetidine-1-yl)-2-(morpholinomethylene)prop-2-en-1-one]: the concentration for half-maximal inhibition (IC50) (in the data set with SNU16 cells; in data set [1]; in data set [2]) was below 10 nM in each case.
`C=CS(=O)(=O)N1CC[C@H](n2nc(-c3cc4cc(C)cc(OC)c4s3)c3c(N)ncnc32)C1` [NO. 40]: the IC50 in the data set on SNU16 cells was above 100 nM; in data set [1], below 10 nM; in data set [2], below 10 nM.
On to `COc1cc(C)cc2cc(-c3nn([C@H]4CCN(C(=O)/C=C/CN(C)C)C4)c4ncnc(N)c34)sc12` [NO. 38], for which the values for the IC50 (with SNU16 cells; in data set [1]; in data set [2]) were below 10 nM, below 10 nM and above 100 nM, respectively.
As to `C=CC(=O)N1CC(n2nc(-c3cc4cc(C)cc(OC)c4s3)c3c(N)ncnc32)C1` [NO. 26, 1-(3-(4-amino-3-(7-methoxy-5-methylbenzothiophene-2-yl)-1H-pyrazole[3,4-d]pyrimidine-1-yl)azetidine-1-yl)prop-2-en-1-one], the IC50 with SNU16 cells was above 100 nM; in data set [1], below 10 nM; in data set [2], below 10 nM.
Regarding `C=CC(=O)N1CCC(n2cc(-c3cc4cc(C)cc(OC)c4s3)c3c(N)ncnc32)C1` (stereo not shown) [NO. 1, 1-(3-(4-amino-5-(7-methoxy-5-methylbenzothiophen-2-yl)-7H-pyrrole[2,3-d]pyrimidine-7-yl)pyrrolidine-1-yl)prop-2-en-1-one], the IC50 (in the data set with SNU16 cells; in data set [1]; in data set [2]) was below 10 nM in each case.
For the compound `C#CC(=O)N1CC[C@H](n2nc(-c3cc4cc(C)cc(OC)c4s3)c3c(N)ncnc32)C1` [NO. 39, (S)-1-(3-(4-amino-3-(7-methoxy-5-methylbenzothiophene-2-yl)1H-pyrazolo[3,4-d]pyrimidine-1-yl)pyrrolidin-yl)prop-2-yn-1-one], the IC50 in the data set with SNU16 cells was above 100 nM; in data set [1], below 10 nM; in data set [2], below 10 nM.
As for `C=C(F)C(=O)N1CC(n2cc(-c3cc4cc(C)cc(OC)c4s3)c3c(N)ncnc32)C1` [NO. 29], the values for the IC50 (in the data set with SNU16 cells; in data set [1]; in data set [2]) were below 10 nM, below 10 nM and 10 to 100 nM, respectively.
On to `C=CC(=O)N1CCC(n2nc(-c3cc4cc(C)cc(OC)c4s3)c3c(N)ncnc32)C1` (stereo not shown) [NO. 2, 1-(3-(4-amino-3-(7-methoxy-5-methylbenzothiophene-2-yl)-1H-pyrazole[3,4-d]pyrimidine-1-yl)pyrrolidine-1-yl)prop-2-en-1-one], for which the values for the IC50 (in the data set on SNU16 cells; in data set [1]; in data set [2]) were below 10 nM, below 10 nM and 10 to 100 nM, respectively.
Regarding `C=CC(=O)N1CCC(n2cc(-c3ccc4[nH]c(C)nc4c3)c3c(N)ncnc32)C1` (stereo not shown) [NO. 36, 1-(3-(4-amino-5-(2-methyl-1H-benzimidazol-5-yl)-7H-pyrrole[2,3-d]pyrimidine-7-yl)pyrrolidine-1-yl)prop-2-en-1-one], the IC50 with SNU16 cells was above 100 nM; in data set [1], 10 to 100 nM; in data set [2] it was 10 to 100 nM.
For the compound `C=CC(=O)N1CC[C@H](n2cc(-c3cc4cc(C)cc(OC)c4s3)c3c(N)ncnc32)C1` [NO. 12, (S)-1-(3-(4-amino-5-(7-methoxy-5-methylbenzothiophene-2-yl)-7H-pyrrole[2,3-d]pyrimidine-7-yl)pyrrolidine-1-yl)prop-2-en-1-one], the IC50 against EGFR was above 1000 nM; in data set [1], below 10 nM; in data set [2], below 10 nM. Besides, the “EGFR inhibitory activity (in words)” value at EGFR (conclusion from Table 3) was “substantially no EGFR inhibitory activity”. In addition, the “T/C (%) relative tumor proliferation rate” value in data set [3] (20 mg/kg qd/14 po) turned out to be 31.28%; in data set [3] (100 mg/kg qd/14 po), 2.9%. For the same compound, the “body weight change of the animals” value was 24.2% in data set [3] (20 mg/kg) and −5.9% in data set [3] (100 mg/kg). In addition, the “tumor volume change of the animals” value was found to be 1500% in data set [3] (20 mg/kg) and 54.8% in data set [3] (100 mg/kg).
Consider `C#CC(=O)N1CC(n2nc(-c3cc4cc(C)cc(OC)c4s3)c3c(N)ncnc32)C1` [NO. 27], for which the IC50 with SNU16 cells was above 100 nM; in data set [1], below 10 nM; in data set [2], 10 to 100 nM.

A word on the IC50: it is the point on the concentration scale where inhibition reaches its midpoint.

Values taken from patent US20190367520A1, “NEW COMPOUND HAVING FGFR INHIBITORY ACTIVITY AND PREPARATION AND APPLICATION THEREOF” (SHANGHAI INSTITUTE OF MATERIA MEDICA, CHINESE ACADEMY OF …, priority 2016, published 2019).
